Measurements taken from US7985412B2, “Method of monitoring/controlling thysanoptera” (Keele University, priority 2004, dated 2011).
Structures can show the parent of a compound that is named as a salt.

How the values were obtained:
[1] = system: female Western Flower Thrips; experiment: Y-tube olfactometer bioassay; format: in vivo, Frankliniella occidentalis; details: for attractant effect (in words): female Western Flower Thrips; for effect upon female Western Flower Thrips (in words): doses of 1 ng, and 100 ng
Procedure: Thrips were originally obtained from a commercial glasshouse and then maintained on pot chrysanthemums (Dendranthema x grandiflora (Ramat.) Kitamura) at 25° C. under a repeated cycle consisting of 18 hours of light and 6 hours of dark. The culture on chrysanthemums supplied mixed-age adult females, which were attracted to adult males in olfactometer bioassays, so these were used in the bioassays.
The Y-tube has two branches at an angle of 90° and a stem, which are all 60 mm long with internal diameters of 5 mm. The Y-tube was held horizontal and illuminated from above by four fluorescent tubes (950 lux). It was screened by a 10 cm high matt-black card wall, forming a 280 mm×280 mm square, to minimise any external visual influences. A 50 ml round glass flask with a Drechsel head was inserted in the tube before each branch and a semi-circle of filter paper (Whatman No. 1, diameter 42.5 mm), moistened with water, was placed in each to humidify the air. Connections between tubes are either made with brass swagelock connectors or by inserting narrower tubes into slightly wider tubes. All the glassware and the glass wool were rinsed thoroughly in warm water with Teepol ‘L’ neutral detergent (BDH Laboratory Supplies, Poole), then in distilled water, then in acetone, and left to dry overnight in an oven at 200° C. before each experiment. The connecting Teflon tubing and the swagelock connectors were rinsed thoroughly in warm water with Teepol ‘L’ neutral detergent, then in distilled water, then in hexane, and left to dry overnight in a fume cupboard before each run of an experiment.
Zero-grade clean air from a cylinder (supplied by British Oxygen Corporation, Manchester) was passed through an activated charcoal filter and then along Teflon tubes to two flow meters (Supelco, Sigma-Aldrich, Poole) that regulated the air flow to the two branches of a glass Y-tube. The rate in the two branches was 50 mm s^−1 (59 ml min^−1) and in the stem was 100 mm s^−1 (118 ml min^−1) and were checked with a bubble flow meter.
Adults were placed one at a time in the stem of the Y-tube, by transferring them with a fine paintbrush, and allowed to walk up the Y-tube. A choice was recorded when they first crossed a line 20 mm down either branch from the junction of the “Y”. If a choice was not made within 3 min, it was recorded as “no choice” and excluded from the analysis. Each individual was tested twice to provide two successive choices. The sample flasks, connecting tubing and Y-tube were reversed after every 5 individuals. This reduced possible bias from external influences. Each experiment consisted of 1 to 3 runs on separate days to reduce possible bias from external influences. A total of 25 individuals were tested in each run of an experiment, which lasted about 2 h. Experiments were conducted at 25±1° C.
At the start of each run, 0.2 ml of distilled water was placed on the filter paper in each flask. […] The filter papers were removed and replaced with fresh water and test and control substances every time the equipment was reversed.
It was shown that there was no preference in thrips response by testing mixed-age females (in the absence of a test composition) in the Y-tube olfactometer on 3 separate days. The apparatus was set up as before, but with only water and hexane in each flask. Since the arms of the Y-tube were reversed by rotating the stem by 180° after every five individuals, the difference in the number of choices between left and right and between arm A and arm B could be tested separately. There was no preference to the left or right or for arm A or arm B thus establishing that the apparatus was unbiased.
In each case 25 adult females were tested in 2 or 3 separate runs. The compound was applied in 1 μl hexane.
Example 1 was repeated using each of isobornyl 2-methyl butanoate, isobornyl pivalate and lavandulyl valerate in amounts of 0.1 ng. […]

F. occidentalis = experiment: Field trial: catch on blue sticky traps in sweet pepper greenhouses; format: in vivo, Frankliniella occidentalis
Procedure: The biological activity of neryl (S)-2 methylbutanoate was tested in commercial crops of sweet pepper (var. Habana) grown in greenhouses at Zamora (37°42.945′N, 0°57.720′W) near Torre Pacheco in the Murcia region of Spain. The crops were about 110 cm high, planted in rows 1 m apart, and were naturally infested with a low level of F. occidentalis. Three 2-day long experiments were carried out, alternating between two nearby houses, each with an area of about 6500 m^2.
The compound was released from rubber septa (6.3 mm diameter×10.8 mm long) (100706; Aldrich, UK) that had been preextracted in hexane-dichloromethane and dried in an oven at 50° C. Septa were loaded with solutions of the test compound in hexane or with hexane alone (control). After evaporation of the solvent, the rubber septa were stored in aluminum foil bags. They were placed on traps in the field within 2 hr of preparation.
Blue plastic rectangular takitraps (10×25 cm) (Syngenta Bioline, UK), coated on both surfaces with insect glue, were suspended vertically with the base about 10 cm above crop height, by attaching them to crop support strings with a wooden clothes peg. One rubber septum was stuck to the center of the north-facing side of each trap.
Each experiment was laid out in a randomized complete block design with 20 blocks and one replicate per block. Traps were placed about 3.4 m apart down rows of sweet pepper plants with 16 m between each row of traps. The experiment compared two doses, 30 ng and 30 μg, of neryl (S)-2-methylbutanoate with a control.
Thrips caught on the blue sticky traps were examined under a stereoscopic microscope to identify their sex and to distinguish F. occidentalis from about 2% of the thrips that were other species (Thrips spp., aeolothripids, and phlaeothripids). The data were log10(x+1) transformed and analyzed by two-way ANOVA for females, males, and both sexes combined. Multiple comparisons with the control used Dunnett's multiple comparison test. Statistical analysis was carried out with Minitab 14 (Minitab Inc., Pennsylvania, USA).

[2] = 0.1 ng, filter paper placed in Teflon tube instead of glass flask

SMILES: C=C(C)C(CC=C(C)C)COC(C)=O (stereo not shown) [lavandulyl acetate, reference compound]
- attractant effect (in words) ([1]; doses of 0.1 ng, 1 ng, 10 ng, 100 ng and 1000 ng): no attractant effect

SMILES: C=C(C)C(CC=C(C)C)COC(=O)CCCC (stereo not shown) [lavandulyl valerate]
- Preference (%) [1, 2]: 79.2%

SMILES: CC(C)(C)C(=O)OC1CC2CCC1(C)C2(C)C (stereo not shown) [isobornyl pivalate]
- Preference (%) [1, 2]: 61.3%

SMILES: CCC(C)C(=O)OC1CC2CCC1(C)C2(C)C (stereo not shown) [Isobornyl 2-methyl butanoate, isobornyl 2-methyl butanoate]
- Preference (%) [1, 2]: 72.9%

SMILES: CC(=O)OC/C=C(/C)CCC=C(C)C [Neryl Acetate, reference compound]
- effect upon female Western Flower Thrips (in words) [1]: no effect

SMILES: CC[C@H](C)C(=O)OC/C=C(/C)CCC=C(C)C [N(S)2MB, neryl (S)-2-methylbutanoate]
- Mean catch over 2 days ± SE (N = 20) (F. occidentalis; Both sexes, high dose 30 μg on rubber septum): 22.2 ± 2.0
- Mean catch over 2 days ± SE (N = 20) (F. occidentalis; Both sexes, low dose 30 ng on rubber septum): 18.7 ± 1.7 ns
- Mean catch over 2 days ± SE (N = 20) (F. occidentalis; Females, high dose 30 μg on rubber septum): 9.1 ± 1.2
- Mean catch over 2 days ± SE (N = 20) (F. occidentalis; Females, low dose 30 ng on rubber septum): 6.8 ± 0.7 ns
- Mean catch over 2 days ± SE (N = 20) (F. occidentalis; Males, high dose 30 μg on rubber septum): 13.2 ± 1.1
- Mean catch over 2 days ± SE (N = 20) (F. occidentalis; Males, low dose 30 ng on rubber septum): 11.9 ± 1.2 ns
- effect on trap catches (in words) (F. occidentalis; dose of 30 μg, both sexes attracted): increased trap catches significantly

SMILES: CC(C)=CCC/C(C)=C\COC=O [Neryl Formate, reference compound]
- effect upon female Western Flower Thrips (in words) [1]: no effect

SMILES: CCCCC(=O)OC1CC2CCC1(C)C2(C)C (stereo not shown) [isobornyl valerate]
- Preference (%) ([1]; 0.002 ng compound in 1 μl hexane, adult females, combined runs): 64.8%
- Preference (%) ([1]; 0.02 ng compound in 1 μl hexane, adult females, combined runs): 73.3%
- Preference (%) ([1]; 0.1 ng compound in 1 μl hexane, adult females, combined runs): 76.9%
- Preference (%) ([1]; 0.2 ng compound in 1 μl hexane, adult females, combined runs): 79.8%
- Preference (%) ([1]; 2 ng compound in 1 μl hexane, adult females, combined runs): 60.3%
- attractant effect (in words) ([1]; 0.002-2 ng (Table 1) or 0.1 ng (Example 2)): strong attractant
